{"source": "patent US12474342B2", "about": "“Methods for treating cancer and the use of biomarkers as a predictor of clinical sensitivity to therapies” (CELGENE CORPORATION, priority 2016, dated 2025)", "key": {"[1]": {"test_system": "ATF3", "experiment": "ATF3 protein induction, western blot, HNT-34", "type": "cell-based, human", "conditions": "HNT-34, 10 nM Compound D"}, "[2]": {"test_system": "AML-193 cells", "experiment": "Apoptosis (caspase 3/7 activation), AML-193", "type": "cell-based, human", "conditions": "for EC50: Homo sapiens, read-out: Compound D-induced Apoptosis EC50"}, "[3]": {"biological_target": "T1, GSPT1 (Homo sapiens, UniProt P15170+Q96SW2)", "T1 sequence (P15170 1-637 isoform P15170-3)": "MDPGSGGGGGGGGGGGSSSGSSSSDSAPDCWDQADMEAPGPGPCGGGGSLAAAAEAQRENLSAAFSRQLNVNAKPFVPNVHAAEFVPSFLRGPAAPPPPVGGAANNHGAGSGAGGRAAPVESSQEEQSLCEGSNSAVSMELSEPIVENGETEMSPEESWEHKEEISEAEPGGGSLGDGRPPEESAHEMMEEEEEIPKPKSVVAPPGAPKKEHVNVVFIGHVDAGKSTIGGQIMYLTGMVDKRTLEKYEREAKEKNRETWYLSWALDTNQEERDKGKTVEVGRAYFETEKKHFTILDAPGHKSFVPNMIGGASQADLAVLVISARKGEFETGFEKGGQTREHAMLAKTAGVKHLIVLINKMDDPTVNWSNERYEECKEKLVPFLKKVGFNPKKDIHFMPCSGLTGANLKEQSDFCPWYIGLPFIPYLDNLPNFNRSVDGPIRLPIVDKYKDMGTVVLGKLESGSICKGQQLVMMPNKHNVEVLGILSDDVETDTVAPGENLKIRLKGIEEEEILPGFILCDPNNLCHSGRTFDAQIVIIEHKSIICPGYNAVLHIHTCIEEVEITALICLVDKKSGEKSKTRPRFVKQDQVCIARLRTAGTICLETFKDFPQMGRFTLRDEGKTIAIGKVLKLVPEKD", "T1 sequence (Q96SW2 whole entry)": "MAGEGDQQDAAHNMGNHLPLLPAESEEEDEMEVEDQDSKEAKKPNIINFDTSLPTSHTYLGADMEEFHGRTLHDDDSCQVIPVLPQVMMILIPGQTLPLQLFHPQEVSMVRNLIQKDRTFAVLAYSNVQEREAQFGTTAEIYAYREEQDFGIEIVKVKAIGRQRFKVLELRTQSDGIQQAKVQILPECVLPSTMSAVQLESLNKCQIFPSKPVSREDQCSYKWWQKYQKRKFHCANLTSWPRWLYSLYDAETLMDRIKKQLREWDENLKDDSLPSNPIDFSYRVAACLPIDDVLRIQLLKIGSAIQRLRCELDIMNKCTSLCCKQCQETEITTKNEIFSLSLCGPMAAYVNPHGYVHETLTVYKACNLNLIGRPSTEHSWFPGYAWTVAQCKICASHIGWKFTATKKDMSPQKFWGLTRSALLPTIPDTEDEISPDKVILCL", "T1 sequence (Q16531 whole entry partner)": "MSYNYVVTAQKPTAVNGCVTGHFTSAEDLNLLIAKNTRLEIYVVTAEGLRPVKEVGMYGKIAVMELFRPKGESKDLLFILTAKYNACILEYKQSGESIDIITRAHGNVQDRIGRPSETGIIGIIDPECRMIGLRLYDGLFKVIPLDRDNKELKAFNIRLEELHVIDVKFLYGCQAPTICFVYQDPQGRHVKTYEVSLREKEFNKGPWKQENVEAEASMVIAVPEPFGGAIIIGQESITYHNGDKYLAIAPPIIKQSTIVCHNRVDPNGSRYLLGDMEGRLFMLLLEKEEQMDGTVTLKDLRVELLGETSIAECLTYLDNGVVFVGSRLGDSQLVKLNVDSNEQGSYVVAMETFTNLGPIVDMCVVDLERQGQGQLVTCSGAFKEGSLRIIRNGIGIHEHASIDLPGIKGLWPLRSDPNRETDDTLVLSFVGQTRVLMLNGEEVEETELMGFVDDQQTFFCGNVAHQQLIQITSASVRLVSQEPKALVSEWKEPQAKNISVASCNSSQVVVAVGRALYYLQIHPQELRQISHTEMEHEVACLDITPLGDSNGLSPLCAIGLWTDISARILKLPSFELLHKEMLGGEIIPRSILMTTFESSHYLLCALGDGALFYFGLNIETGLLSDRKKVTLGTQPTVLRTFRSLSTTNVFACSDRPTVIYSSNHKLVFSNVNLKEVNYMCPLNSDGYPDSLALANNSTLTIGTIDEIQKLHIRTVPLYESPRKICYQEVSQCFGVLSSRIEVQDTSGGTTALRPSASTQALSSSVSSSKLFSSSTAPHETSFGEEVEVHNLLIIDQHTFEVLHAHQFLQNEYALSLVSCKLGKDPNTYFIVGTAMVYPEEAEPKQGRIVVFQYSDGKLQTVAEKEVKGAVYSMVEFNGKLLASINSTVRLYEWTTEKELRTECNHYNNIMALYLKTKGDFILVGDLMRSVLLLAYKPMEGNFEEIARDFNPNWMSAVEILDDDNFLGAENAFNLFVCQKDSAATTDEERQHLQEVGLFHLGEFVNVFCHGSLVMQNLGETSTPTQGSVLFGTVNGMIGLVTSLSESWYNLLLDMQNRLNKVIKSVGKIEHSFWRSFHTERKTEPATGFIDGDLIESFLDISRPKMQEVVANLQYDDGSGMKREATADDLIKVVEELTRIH", "experiment": "GSPT1 protein reduction, western analysis, ML-2", "type": "cell-based", "parameters": "reduction in GSPT1 protein level was evaluated in human normal PBMCs; endogenous in cells; host or cells: primary PBMCs from normal donors (ID 4328, 4379) and AML patients (ID 11SH, 09P6)", "protocol": "The time course of the reduction in GSPT1 by Compound D also was studied for up to 48 hours. The progressive degradation of GSPT1 over the course of 1 to 20 hours was evident in the presence of all concentrations of Compound D studied from 3 to 300 nM in HNT-34, HL-60, and ML-2 cells, with little GSPT1 remaining by 20 hours at 100 or 300 nM Compound D in HNT-34 or HL-60 cells (FIG. 34 and FIG. 35C). Time-dependent reduction in GSPT1 was also observed in KG-1 and OCI-AML2 cells at 3 to 1000 nM Compound D, with little GSPT1 remaining in KG-1 cells at 100 to 300 nM at 24 hours or in OCI-AML2 cells at 300 and 1000 nM at 24 hours (FIG. 35D). Loss of GSPT1 occurred more slowly in Kasumi-1, AML-193, and […] cells. […] A positive association (r^2=0.50; […]"}, "[4]": {"biological_target": "T1, GSPT1", "experiment": "GSPT1 protein reduction, western analysis, KG-1", "type": "cell-based", "parameters": "reduction in GSPT1 protein level was evaluated in human normal PBMCs; endogenous in cells; host or cells: primary PBMCs from normal donors (ID 4328, 4379) and AML patients (ID 11SH, 09P6)", "protocol": "Cells were treated with DMSO alone, 200 nM Compound D, or 200 nM Compound E. After 8 or 12 hours, the expression levels of various cellular components along UPR or apoptosis pathways were measured. […] Reduction of BIP indicates UPR.\nTo further investigate the timeline of cellular events upon Compound D treatment, KG1 cells were treated with DMSO alone or 200 nM Compound D. At 2, 4, 6, 8, 10, or 12 hours, the expression levels of various cellular components along ATF4 or apoptosis pathways were measured.\nIn two sensitive AML cell lines, KG-1 and HL-60, both a concentration-dependent decrease in GSPT1 protein and an increase in RNA expression of ATF3, CHOP, and SRSF3 and SRSF6 NMD transcripts at the 8-hour time point were compared to caspase 3/7 activation (apoptosis) at the 24-hour (FIG. 30A [KG-1]; FIG. 30C [HL-60]) and 48-hour (FIG. 30B [KG-1]; FIG. 30D [HL-60]) time points.\nThe reduction in the level of GSPT1 protein was concentration-dependent over the range of 3 to 1000 nM in eight of the nine AML cell lines and over the range of 300 to 1000 nM in one relatively insensitive AML cell line. The time course of the reduction in GSPT1 by Compound D also was studied for up to 48 hours. The progressive degradation of GSPT1 over the course of 1 to 20 hours was evident in the presence of all concentrations of Compound D studied from 3 to 300 nM in HNT-34, HL-60, and ML-2 cells, with little GSPT1 remaining by 20 hours at 100 or 300 nM Compound D in HNT-34 or HL-60 cells (FIG. 34 and FIG. 35C). Time-dependent reduction in GSPT1 was also observed in KG-1 and OCI-AML2 cells at 3 to 1000 nM Compound D, with little GSPT1 remaining in KG-1 cells at 100 to 300 nM at 24 hours or in OCI-AML2 cells at 300 and 1000 nM at 24 hours (FIG. 35D). Loss of GSPT1 occurred more slowly in Kasumi-1, AML-193, and F36-P cells.\nCompound D-mediated GSPT1 reduction at 8 hours was compared to induction of caspase 3/7 activation (apoptosis) at 12, 24, and 48 hour time points in these nine AML cell lines. […] A positive association (r^2=0.50; R=0.71; p value=4.86E-002) was observed between the level of GSPT1 reduction and apoptosis induction in the AML cell panel (FIG. 36), with >90% GSPT1 reduction correlating with induction of apoptosis."}, "[5]": {"test_system": "KASUMI-1 cells", "experiment": "Apoptosis (caspase 3/7 activation), Kasumi-1", "type": "cell-based, human"}, "[6]": {"test_system": "XBP1", "experiment": "XBP1 assay in U937 cells", "type": "cell-based, human", "conditions": "0.5 μM TG for 6 hours or 4 μM Compound D for 8, 16, or 32 hours", "protocol": "IRE1, a kinase that activates the XBP1 pathway, was knocked out in U937 cells by CRISPR-mediated gene editing using IRE1 CRISPR constructs. Wild type U937 cells or IRE1 CRISPR knockout U937 cells were treated with 0.5 μM TG for 6 hours or 4 μM Compound D for 8, 16, or 32 hours, then subject to XBP1 assay."}, "[7]": {"test_system": "F36-P cells", "experiment": "Apoptosis (caspase 3/7 activation), F36-P", "type": "cell-based, human"}, "[8]": {"test_system": "nontumorigenic human hepatocellular cell line THLE-2", "experiment": "Anti-proliferation, THLE-2", "type": "cell-based", "conditions": "THLE-2 (data not shown)"}, "[9]": {"test_system": "HL-60 cells", "experiment": "Anti-proliferation 72-hour CTG assay, HL-60", "type": "cell-based", "conditions": "Homo sapiens; HL-60, 72-hour CTG assay; read-out: IC50 of the anti-proliferative effect", "protocol": "A plethora of AML cell lines were treated with serial dilutions of Compound D. IC50 value of the anti-proliferation effect of Compound D (as determined in 72-hour CTG assays) in each cell line is summarized in Table 1."}}, "note": "Where two headings read alike, the source gives them in different places.", "data": [{"smiles": "O=C1CCC(N2Cc3cc(CNC(=O)C(F)(F)c4ccc(Cl)cc4)ccc3C2=O)C(=O)N1", "note": "(centres unmarked) [Compound D, 2-(4-chlorophenyl)-N-((2-(2,6-dioxopiperidin-3-yl)-1-oxoisoindolin-5-yl)methyl)-2,2-difluoroacetamide]", "values": [{"measurement": "time of induction of ATF3 protein", "setting": "[1]", "result": 12, "unit": "h"}, {"measurement": "Average Percent Increase in Apoptosis at 123 nM Compound D, Apoptosis (12 hr)", "setting": "[2]; AML-193, 123 nM, 12 hr", "result": 0, "unit": "%"}, {"measurement": "Average Percent Increase in Apoptosis at 123 nM Compound D, Apoptosis (24 hr)", "setting": "[2]; AML-193, 123 nM, 24 hr", "result": 5, "unit": "%"}, {"measurement": "Average Percent Increase in Apoptosis at 123 nM Compound D, Apoptosis (48 hr)", "setting": "[2]; AML-193, 123 nM, 48 hr", "result": 40, "unit": "%"}, {"measurement": "EC50", "setting": "[2]; AML-193, 48 hr", "result": 89, "unit": "nM"}, {"measurement": "EC50", "setting": "[2]; AML-193, 72 hr", "result": 47, "unit": "nM"}, {"measurement": "EC50", "setting": "[2]; AML-193, 96 hr", "result": 60, "unit": "nM"}, {"measurement": "reduction of GSPT1 protein levels", "setting": "[3]; ML-2, 100 nM Compound D, 8 hours", "result": "greater than 800"}, {"measurement": "Percent Reduction at 100 nM Compound D GSPTI (8 hr)", "setting": "[3]; ML-2, 100 nM, 8 hr", "result": 82, "unit": "%"}, {"measurement": "time of GSPT1 degradation", "setting": "[4]; KG1, 200 nM", "result": "≤ 2", "unit": "h"}, {"measurement": "degradation of GSPT1", "setting": "[4]; KG1, 200 nM, 8 or 12 hours", "result": "induced degradation"}, {"measurement": "reduction of GSPT1 protein levels", "setting": "[4]; KG-1, 100 nM Compound D, 4 hours", "result": "greater than 800"}, {"measurement": "reduction of GSPT1 protein levels", "setting": "[4]; KG-1, 100 nM or greater, 8-hour time point", "result": "> 90", "unit": "%"}, {"measurement": "EC50", "setting": "[5]; Homo sapiens, read-out: Compound D-induced Apoptosis EC50, Kasumi-1, 96 hr", "result": 55, "unit": "nM"}, {"measurement": "Average Percent Increase in Apoptosis at 123 nM Compound D, Apoptosis (12 hr)", "setting": "[5]; Kasumi-1, 123 nM, 12 hr", "result": 1, "unit": "%"}, {"measurement": "Average Percent Increase in Apoptosis at 123 nM Compound D, Apoptosis (24 hr)", "setting": "[5]; Kasumi-1, 123 nM, 24 hr", "result": 3, "unit": "%"}, {"measurement": "Average Percent Increase in Apoptosis at 123 nM Compound D, Apoptosis (48 hr)", "setting": "[5]; Kasumi-1, 123 nM, 48 hr", "result": 18, "unit": "%"}, {"measurement": "XBP1 pathway", "setting": "[6]", "result": "activated the XBP1 pathway"}, {"measurement": "Average Percent Increase in Apoptosis at 123 nM Compound D, Apoptosis (12 hr)", "setting": "[7]; 12 hr", "result": 0, "unit": "%"}, {"measurement": "Average Percent Increase in Apoptosis at 123 nM Compound D, Apoptosis (24 hr)", "setting": "[7]; 24 hr", "result": 2, "unit": "%"}, {"measurement": "Average Percent Increase in Apoptosis at 123 nM Compound D, Apoptosis (48 hr)", "setting": "[7]; 48 hr", "result": 6, "unit": "%"}, {"measurement": "IC50", "setting": "[8]", "result": "~10000", "unit": "nM"}, {"measurement": "IC50", "setting": "[9]", "result": 20, "unit": "nM"}]}]}
